Patent US11179430B2, “Extracts from mother-of-thyme and the use i'hereof” (Finzelberg GmbH & Co. KG, priority 2012, dated 2021)

Tested on: TNBS-induced colitis in Wistar rats
Experiment: In vivo TNBS test model (colitis in rats)
Description: Female Wistar rats (200-210 g) were kept in Makrolon cages in air-conditioned animal quarters with 12 hours light-dark cycle, fed standard rodent food and water ad libitum throughout the experiment. The rats are randomly assigned to six groups (n=10). Two groups (healthy and sick controls) obtain 1 ml of the administration medium orally, and the test groups obtain either 100 mg/kg BW of a wild thyme extract formulation according to Example 4, or 70 mg/kg BW of a wild thyme extract formulation according to Example 3, or 30 mg/kg BW of the prebiotic Nutriose, or 100 mg/kg BW sulfasalazine (SAZ) in the reference group. All test substances are administered once a day as a solution or suspension through a gastric tube for a period of 7 days. The administration of the test substances starts at the same day as the colitis induction. For this purpose, the rats are fasted over night, and then a colitis is induced in both the sick control group and the treatment groups with TNBS as follows: During a halothane anesthesia, a solution (10 mg of TNBS dissolved in 0.25 ml of ethanol 50% v/v) is injected from a Teflon cannula through the anus 8 cm deep into the intestine. The rats of the healthy control group are administered 0.25 ml of a PBS solution instead of the TNBS solution. The body weight, the water and food intake and the stool consistency are recorded daily during the testing period. One week after the start of the colitis induction, all the rats are sacrificed by an overdose of halothane, and the intestine is removed for evaluating the intestinal damage. The intestinal segment is cleaned from fat and mesenterium, and transferred to a filter paper. Each specimen is weighed, and its length is measured under a constant load (2 g), and the weight-to-length ratio is determined therefrom. Independently of the treatment employed, the intestine is evaluated macroscopically for visible damage on a scale of from 0 to 10 by two observers by means of previously defined criteria, which take the extension and severity of the damage into account. […]

Question: Which IL-6 (100 mg/kg oral once a day, 7 days, colitic control 281.8 ± 26.8) does the source give for `O=C(O)c1cc(/N=N/c2ccc(S(=O)(=O)Nc3ccccn3)cc2)ccc1O` [Sulfasalazine, sulfasalazine] here?
Answer: 222.0 ± 16.1 ng/g

Question: And the MPO (100 mg/kg oral once a day, 7 days, colitic control 8969.6 ± 1402.0)?
Answer: 5591.5 ± 537.0 mU/g

Question: What about the “significant influence on the parameters of Table 3, in words” value (doses as in Table 3, vs. colitic control) of the same compound?
Answer: could not show significant improvements in all parameters
